Measurements published in PubChem BioAssay (NCI).
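In this assay, cells in 96-well plates receive the compound at five concentrations for 48 hours. Endpoints are linearly interpolated between the surrounding concentrations. GI50 is the concentration that inhibits growth by half. TGI: concentration producing complete growth inhibition.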

Key:
Experiment in all cases: NCI tumour cell line growth inhibition, 48 h
[1] = system: MOLT-4 leukemia
[2] = system: SK-MEL-28 melanoma
[3] = system: OVCAR-8 ovarian
[4] = system: NCI-H460 lung
[5] = system: HOP-92 NSCLC
[6] = system: BT-549 breast
[7] = system: NCI-H23 lung
[8] = system: HL-60(TB) leukemia
[9] = system: HOP-18 NSCLC
[10] = system: HCC-2998 colon

SMILES	TGI [1]	TGI [2]	TGI [3]	TGI [4]	TGI [5]	TGI [6]	TGI [7]	TGI [8]	TGI [9]	TGI [10]	GI50 [10]	GI50 [5]	GI50 [6]	GI50 [1]	GI50 [2]	GI50 [3]	GI50 [4]	GI50 [8]	GI50 [7]
COc1ccc2c(c1)C(=O)/C(=C/c1ccccc1)C2	> 100 µM	> 100 µM	> 100 µM	> 100 µM	> 100 µM	> 100 µM	> 100 µM												
COc1cc(CN(C)N2C(=O)c3cccc4cc([N+](=O)[O-])cc(c34)C2=O)cc(OC)c1OC	> 100 µM	> 100 µM	> 100 µM	> 100 µM	> 100 µM	> 100 µM	> 100 µM	> 100 µM											
O=C(NC/C=C/CO)c1ccccc1	> 100 µM	> 100 µM	> 100 µM	> 100 µM			> 100 µM	> 100 µM	> 100 µM	> 100 µM									
CCCCN(CCCC)C1(c2cc3ccccc3s2)CCCCC1	28.8 µM	34.1 µM	34.4 µM	27.9 µM	25.5 µM	35.1 µM	29.5 µM	34.3 µM		27.4 µM									
C=C1CC2(C)CCC(OC(=O)C3(C)OC3C)C(C)(OC(C)=O)C2CC1=C(C)C (stereo not given)	> 100 µM	> 100 µM	> 100 µM	> 100 µM	> 100 µM	> 100 µM	> 100 µM	76.1 µM		> 100 µM									
CCC1CN2CCc3cc(OC)c(OC)cc3C2CC1CC1c2cc(OC)c(OC)cc2CCN1C(=O)C(Cc1c[nH]c2ccccc12)NC(=O)OC(C)(C)C (stereo not given)	8.07 µM	4.31 µM	8.58 µM	7.15 µM	7.1 µM	7.83 µM	16.6 µM	3.8 µM	18.7 µM	5.24 µM									
O=C(O)CSc1nc2ccccc2[nH]1	> 100 µM	> 100 µM	> 100 µM	> 100 µM	> 100 µM	> 100 µM	> 100 µM			> 100 µM									
CC12CCC3C(CCC4(O)C=CCCC34C=O)C1(O)CC(O)C2c1ccc(=O)oc1 (stereo not given)	0.394 µM	0.799 µM	0.193 µM	0.0716 µM	0.267 µM		0.12 µM		0.371 µM	0.252 µM									
O=C1CNC(=O)N1	> 1120 µM	> 1120 µM	> 1120 µM	> 1120 µM	> 11.2 µM		> 1120 µM	> 1120 µM	> 1120 µM	> 1120 µM									
Cc1ccc(NCCO)cc1	> 100 µM	> 100 µM	> 100 µM	> 100 µM	> 100 µM		> 100 µM	> 100 µM											
CCOC(=O)C(CC(C)C)NC(=O)C(N)Cc1ccc(N(CCCl)CCCl)cc1 (stereo not given)	1.68 µM	13.7 µM	24.9 µM	0.426 µM	11.2 µM	46 µM	7.09 µM	2.51 µM	16.1 µM	20 µM									
CCNc1nc2c(=O)n(C)c(=O)n(C)c2s1	> 100 µM	> 100 µM	> 100 µM	> 100 µM	> 100 µM		> 100 µM	> 100 µM	> 100 µM	> 100 µM									
CCOC(=O)c1csc(NC(=O)CCN2CCOCC2)n1	81.1 µM	> 100 µM	87.2 µM	> 100 µM	> 100 µM		> 100 µM	94.4 µM		> 100 µM									
Nc1ccc(N=Nc2ccc(-c3ccc(N=Nc4c(S(=O)(=O)O)cc5cc(S(=O)(=O)O)c(N=Nc6ccc([N+](=O)[O-])cc6)c(N)c5c4O)cc3)cc2)c2cc(S(=O)(=O)O)ccc12	> 100 µM	> 100 µM	> 100 µM	> 100 µM	> 100 µM		> 100 µM	> 100 µM		> 100 µM									
NCCSC1(O)C(=O)c2ccccc2-c2ccccc21 (stereo not given)	1.21 µM	2.85 µM	1.16 µM	3.34 µM	2.62 µM	2.9 µM	3.75 µM	2.55 µM		3.56 µM	2.01 µM	1.3 µM	1.56 µM						
COc1ccc(-c2nnc3c4ccccc4sn23)cc1	> 100 µM	> 100 µM	> 100 µM	> 100 µM	> 100 µM		> 100 µM	45.4 µM	83.9 µM	> 100 µM									
Fc1cc(C2=Nn3c(nnc3-c3cc(F)c(Cl)cc3Cl)SC2)c(Cl)cc1Cl	74.2 µM	54.3 µM	97.3 µM	> 100 µM	> 100 µM		> 100 µM	> 100 µM		> 100 µM	31.6 µM	11.3 µM		16.9 µM	21.5 µM	26 µM	17.6 µM	80.4 µM	21.8 µM
